These molecules were tested on phosphorylation of Serine 473 in Akt in MDA-MB-468 cells (assay: In Vitro phospho-Ser473 Akt Assay (Acumen Explorer)). Settings: Homo sapiens, MDA-MB-468, read-out: IC50 values against mTOR (phospho-Ser473 Akt assay).
Type: cell-based

SMILES | IC50
CC(C)Oc1ccc(-c2ccc3c(N4CCOC[C@@H]4C)nc(N4CCOC[C@@H]4C)nc3n2)cc1C(N)=O [Example 11cw, 5-[2,4-bis-((S)-3-methyl-morpholin-4-yl)-pyrido[2,3-d]pyrimidin-7-yl]-2-isopropoxy-benzamide] | < 11 µM
CC(C)C(=O)NCc1cc(-c2ccc3c(N4CCOC[C@@H]4C)nc(N4CCOC[C@@H]4C)nc3n2)ccc1F [Example 15w] | < 11 µM
COC(=O)[C@@H]1C[C@@H](O)CN1c1nc(N2CCOC[C@@H]2C)c2ccc(-c3ccc(OC)c(CO)c3)nc2n1 [Example 28aa] | < 11 µM
C[C@H]1COCCN1c1nc(N2CCOC[C@@H]2C)c2ccc(-c3cccnc3)nc2n1 [Example 11bu] | < 11 µM
C[C@H]1CCCCN1c1nc(N2CCOC[C@@H]2C)c2ccc(-c3ccc(Cl)cc3)nc2n1 [Example 28de] | < 11 µM
CNCCNc1nc(N2CCOC[C@@H]2C)c2ccc(-c3ccc(OC)c(CO)c3)nc2n1 [Example 28bv] | < 11 µM
C[C@H]1COCCN1c1nc(-c2ccncc2)nc2nc(-c3cccc(CO)c3)ccc12 [Example 29q] | < 11 µM
COC(=O)c1cccc(-c2nc(N3CCOC[C@@H]3C)c3ccc(-c4ccc(OC)c(CO)c4)nc3n2)c1 [Example 29h] | < 11 µM
C[C@H]1COCCN1c1nc(N2CCOC[C@@H]2C)c2ccc(-c3ccc(F)c(CNC(=O)C(F)(F)F)c3)nc2n1 [Example 15z] | < 11 µM
COc1ccc(-c2ccc3c(N4CCOC[C@@H]4C)nc(N4CCCC(c5ccccc5)C4)nc3n2)cc1CO (stereo partly drawn) [Example 28j] | < 11 µM
C[C@H]1COCCN1c1nc(N2CCOC[C@@H]2C)c2ccc(-c3ccc(CNCC(N)=O)o3)nc2n1 [Example 17j] | < 11 µM
CNc1nc(N2CCOC[C@@H]2C)c2ccc(-c3ccc(OC)c(CO)c3)nc2n1 [28 bp] | < 11 µM
C[C@H]1COCCN1c1nc(N2CCOC[C@@H]2C)c2ccc(-c3cccc(C#N)c3)nc2n1 [Example 11aw] | < 11 µM
COCCN(C)Cc1cc(-c2ccc3c(N4CCOC[C@@H]4C)nc(N4CCOC[C@@H]4C)nc3n2)ccc1F [Example 14aj] | < 11 µM
Cc1ccc(-c2cnc3c(N4CCOC[C@@H]4C)nc(N4C[C@@H](C)O[C@@H](C)C4)nc3n2)cc1 [Example 22b] | < 11 µM
C[C@H]1COCCN1c1nc(N2CCOC[C@@H]2C)c2ccc(-c3cccc(C(=O)N4CCN(C)CC4)c3)nc2n1 [Example 11bf] | < 11 µM
CC(C)CC(=O)NCc1cccc(-c2ccc3c(N4CCOC[C@@H]4C)nc(N4CCOC[C@@H]4C)nc3n2)c1 [Example 15f] | < 11 µM
CC(=O)NCc1cc(-c2ccc3c(N4CCOC[C@@H]4C)nc(N4CCOC[C@@H]4C)nc3n2)ccc1F [Example 15t] | < 11 µM
COc1ccc(-c2ccc3c(N4CCOC[C@@H]4C)nc(NC(C)CN(C)C)nc3n2)cc1CO (stereo partly drawn) [Example 28ct] | < 11 µM

SMILES | IC50
C[C@@H]1CCCCN1c1nc(N2CCOC[C@@H]2C)c2ccc(-c3ccc(Cl)cc3)nc2n1 [Example 28dg] | < 11 µM
C[C@H]1COCCN1c1nc(N2CCOC[C@@H]2C)c2ccc(-c3ccc(F)c(CNC4CC4)c3)nc2n1 [Example 14v] | < 11 µM
CNC(=O)c1ccc(-c2ccc3c(N4CCOC[C@@H]4C)nc(N4CCOC[C@@H]4C)nc3n2)cc1 [Example 11ak] | < 0.1 µM
C[C@H]1COCCN1c1nc(-c2cnn(C)c2)nc2nc(-c3cccc(CO)c3)ccc12 [Example 29v] | < 11 µM
COc1ccc(-c2ccc3c(N4CCOC[C@@H]4C)nc(N4CCC(Cc5ccccc5)CC4)nc3n2)cc1CO [Example 28al] | < 11 µM
C[C@H]1COCCN1c1nc(-c2cccnc2F)nc2nc(-c3cccc(CO)c3)ccc12 [Example 29u] | < 11 µM
COc1ccc(-c2ccc3c(N4CCOC[C@@H]4C)nc(N4CCC5CCCCC5C4)nc3n2)cc1CO (stereo partly drawn) [Example 28ag] | < 11 µM
COc1ccc(-c2ccc3c(N4CCOC[C@@H]4C)nc(NCCO)nc3n2)cc1CO [Example 28bs] | < 11 µM
C[C@H]1COCCN1c1nc(N2CCC(C(N)=O)CC2)nc2nc(-c3ccc(Cl)cc3)ccc12 [Example 28dj] | < 11 µM
COc1ccc(CCNCc2cc(-c3ccc4c(N5CCOCC5C)nc(N5CCOC[C@@H]5C)nc4n3)ccc2OC)cc1 (stereo partly drawn) [Example 14bd] | < 0.1 µM
CC(C)C(=O)NCc1cccc(-c2ccc3c(N4CCOC[C@@H]4C)nc(N4CCOC[C@@H]4C)nc3n2)c1 [Example 15d] | < 11 µM
C[C@H]1COCCN1c1nc(N2CCOC[C@@H]2C)c2ccc(-c3ccncc3)nc2n1 [Example 11ar] | < 11 µM
COc1ccc(-c2ccc3c(N4CCOC[C@@H]4C)nc(N4CCN(CCO)CC4)nc3n2)cc1CO [Example 28ci] | < 0.3 µM
CC(C)CC(=O)NCc1cc(-c2ccc3c(N4CCOC[C@@H]4C)nc(N4CCOC[C@@H]4C)nc3n2)ccc1F [Example 15y] | < 11 µM
COc1ccc(-c2ccc3c(N4CCOC[C@@H]4C)nc(N4CCOC[C@@H]4C)nc3n2)cn1 [Example 11n] | < 0.3 µM
COC(=O)c1cncn1-c1nc(N2CCOC[C@@H]2C)c2ccc(-c3ccc(OC)c(CO)c3)nc2n1 [Example 28az] | < 11 µM
CCOc1nc(N2CCOC[C@@H]2C)c2ccc(-c3ccc(OC)c(CO)c3)nc2n1 [Example 28cv] | < 11 µM
COc1ccc(-c2ccc3c(N4CCOC[C@@H]4C)nc(NCCN(C)C)nc3n2)cc1CO [Example 28cb] | < 11 µM
COCCNc1nc(N2CCOC[C@@H]2C)c2ccc(-c3ccc(OC)c(CO)c3)nc2n1 [Example 28by] | < 11 µM

Same assay, conditions: Homo sapiens; MDA-MB-468 cells, 2 hours; read-out: IC50, phospho-Ser473 Akt assay (cellular IC50, measured by pAkt)

IC50 | SMILES
0.381 µM | C[C@H]1COCCN1c1nc(N2CCOC[C@@H]2C)c2ccc(-c3ccc4c(c3)C(=O)NCCN4)nc2n1 [Example 11df, 7-[2,4-bis-((S)-3-methyl-morpholin-4-yl)-pyrido[2,3-d]pyrimidin-7-yl]-1,2,3,4-tetrahydro-benzo[e][1,4]diazepin-5-one]
0.0141 µM | C[C@H]1COCCN1c1nc(N2CCOC[C@@H]2C)c2ccc(-c3cccc(N)c3)nc2n1 [Example 11dr, 3-[2,4-Bis-((S)-3-methyl-morpholin-4-yl)-pyrido[2,3-d]pyrimidin-7-yl]-phenylamine]
0.682 µM | CNC(=O)C1CCN(c2nc(N3CCOC[C@@H]3C)c3ccc(-c4ccc(N)nc4)nc3n2)CC1 [Example 28dk]
0.295 µM | C[C@H]1COCCN1c1nc(N2CCOCC2)nc2nc(-c3ccc(N)nc3)ccc12 [Example 28dl]

Same assay, conditions: Homo sapiens; MDA-MB-468 cells, compounds of Formula I(B); read-out: IC50 values against mTOR (phospho-Ser473 Akt assay)

IC50 | SMILES
< 0.1 µM | CNC(=O)c1cccc(-c2ccc3c(N4CCOC[C@@H]4C)nc(N4CCOC[C@@H]4C)nc3n2)c1 [Example 11ap]

These molecules were tested against recombinant mTOR (FLAG-tagged, amino acid residues 1362 to 2549) (Homo sapiens, UniProt P42345) (assay: Alternative Enzyme Assay: AlphaScreen, inhibition of phosphorylation by recombinant mTOR). Settings: Alternative Enzyme Assay, upper bounds; read-out: IC50 values against mTOR.
recombinant mTOR (FLAG-tagged, amino acid residues 1362 to 2549), sequence (P42345 1362-2549): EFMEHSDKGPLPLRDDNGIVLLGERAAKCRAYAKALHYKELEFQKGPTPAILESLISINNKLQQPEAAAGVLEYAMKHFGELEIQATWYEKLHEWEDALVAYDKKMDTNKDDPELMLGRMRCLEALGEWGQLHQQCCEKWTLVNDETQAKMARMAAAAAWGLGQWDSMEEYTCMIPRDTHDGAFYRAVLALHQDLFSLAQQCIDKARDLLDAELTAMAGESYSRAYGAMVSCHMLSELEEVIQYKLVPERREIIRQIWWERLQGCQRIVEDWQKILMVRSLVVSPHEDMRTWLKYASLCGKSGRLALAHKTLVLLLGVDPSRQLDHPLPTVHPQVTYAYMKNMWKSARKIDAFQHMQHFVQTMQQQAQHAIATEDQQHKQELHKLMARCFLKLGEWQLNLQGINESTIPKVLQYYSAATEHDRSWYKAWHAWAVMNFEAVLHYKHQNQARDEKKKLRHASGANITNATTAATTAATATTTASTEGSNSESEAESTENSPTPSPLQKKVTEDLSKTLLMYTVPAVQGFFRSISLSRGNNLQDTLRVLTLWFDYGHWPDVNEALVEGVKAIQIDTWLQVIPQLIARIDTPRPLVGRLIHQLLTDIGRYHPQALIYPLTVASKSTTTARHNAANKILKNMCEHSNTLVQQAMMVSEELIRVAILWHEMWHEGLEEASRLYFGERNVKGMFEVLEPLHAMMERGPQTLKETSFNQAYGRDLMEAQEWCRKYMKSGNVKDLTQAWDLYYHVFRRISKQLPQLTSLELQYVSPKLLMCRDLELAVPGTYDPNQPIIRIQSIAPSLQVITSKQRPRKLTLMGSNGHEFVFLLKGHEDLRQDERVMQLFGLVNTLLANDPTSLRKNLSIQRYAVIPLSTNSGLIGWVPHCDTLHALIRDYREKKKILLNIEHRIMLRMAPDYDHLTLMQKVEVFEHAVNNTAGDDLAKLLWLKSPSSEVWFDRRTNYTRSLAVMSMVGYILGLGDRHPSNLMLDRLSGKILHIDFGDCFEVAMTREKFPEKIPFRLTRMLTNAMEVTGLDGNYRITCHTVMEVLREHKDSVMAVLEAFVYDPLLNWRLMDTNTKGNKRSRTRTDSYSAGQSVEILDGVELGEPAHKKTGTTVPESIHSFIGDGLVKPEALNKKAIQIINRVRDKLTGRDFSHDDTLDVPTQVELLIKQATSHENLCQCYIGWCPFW
Type: biochemical

IC50 | SMILES
< 1 µM | COC(=O)c1cccc(-c2nc(N3CCOCC3)c3ccc(-c4ccc(Cl)cc4)nc3n2)c1 [Example 9ad]
< 1 µM | FC(F)(F)c1cccc(-c2nc(N3CCOCC3)c3ccc(-c4ccc(Cl)cc4)nc3n2)c1 [Example 9p]
< 10 µM | C[C@@H]1CN(c2nc(N3CCOCC3)c3ccc(-c4ccc(OC5C=CCCC5)cc4)nc3n2)C[C@H](C)O1 (stereo partly drawn) [Example 1bl]
< 10 µM | Clc1ccc(-c2ccc3c(N4CCOCC4)nc(-c4cccnc4)nc3n2)cc1 [Example 9t]
< 1 µM | C[C@@H]1CN(c2nc(N3CCOCC3)c3ccc(-c4ccc(OCC5CCCCC5)cc4)nc3n2)C[C@H](C)O1 [Example 1bk]
< 10 µM | COc1ccc(-c2ccc3c(N4CCOCC4)nc(-c4cc(C(=O)O)cc([N+](=O)[O-])c4)nc3n2)cc1CO [Example 9b]
< 10 µM | O=[N+]([O-])c1cccc(-c2nc(N3CCOCC3)c3ccc(-c4ccc(Cl)cc4)nc3n2)c1 [Example 9v]
< 10 µM | C[C@@H]1CN(c2ccc3c(N4CCOCC4)nc(-c4ccc(Cl)cc4)nc3n2)C[C@H](C)O1 [Example 9s]
< 10 µM | CC(C)CCCOc1ccc(-c2ccc3c(N4CCOCC4)nc(N4C[C@@H](C)O[C@@H](C)C4)nc3n2)cc1 [Example 1bx]
< 1 µM | C[C@@H]1CN(c2nc(N3CCOCC3)c3ccc(-c4ccc(OCCCO)cc4)nc3n2)C[C@H](C)O1 [Example 1bm]
< 10 µM | C[C@@H]1CN(c2nc(N3CCOCC3)c3ccc(-c4ccc(OCc5ccc(F)c(F)c5)cc4)nc3n2)C[C@H](C)O1 [Example 1bw]
< 10 µM | COc1ccc(-c2ccc3c(N4CCOCC4)nc(-c4cccc([N+](=O)[O-])c4)nc3n2)cc1CO [Example 9c]
< 1 µM | C[C@@H]1CN(c2nc(N3CCOCC3)c3ccc(-c4ccc(OCC(C)(C)C)cc4)nc3n2)C[C@H](C)O1 [Example 1bo]
< 1 µM | C[C@@H]1CN(c2nc(N3CCOCC3)c3ccc(-c4ccc(OCC5CCCO5)cc4)nc3n2)C[C@H](C)O1 (stereo partly drawn) [Example 1bt]
< 10 µM | O=Cc1cccc(-c2nc(N3CCOCC3)c3ccc(-c4ccc(Cl)cc4)nc3n2)c1 [Example 9w]
< 10 µM | NC(=O)c1cccc(-c2nc(N3CCOCC3)c3ccc(-c4ccc(Cl)cc4)nc3n2)c1 [Example 9ac]
< 10 µM | COc1ccc(-c2ccc3c(N4CCOCC4)nc(-c4cccc(CO)c4)nc3n2)cc1CO [Example 9ae]
< 1 µM | CCCOc1ccc(-c2ccc3c(N4CCOCC4)nc(N4C[C@@H](C)O[C@@H](C)C4)nc3n2)cc1 [Example 1bn]
< 10 µM | Clc1ccc(-c2ccc3c(N4CCOCC4)nc(-c4ccco4)nc3n2)cc1 [Example 9x]
< 10 µM | COc1cccc(-c2nc(N3CCOCC3)c3ccc(-c4ccc(Cl)cc4)nc3n2)c1 [Example 9u]
< 10 µM | COc1ccc(-c2ccc3c(N4CCOCC4)nc(-c4cccc(-c5ccccc5)c4)nc3n2)cc1CO [Example 9o]
< 10 µM | COCc1cccc(-c2nc(N3CCOCC3)c3ccc(-c4ccc(Cl)cc4)nc3n2)c1 [Example 9z]

Same assay, conditions: Alternative Enzyme Assay; read-out: IC50 values against mTOR

IC50 | SMILES
< 0.3 µM | C[C@@H]1CN(c2nc(N3CCOCC3)c3ccc(-c4ccc(OCc5ccccc5)cc4)nc3n2)C[C@H](C)O1 [Example 1bf]
< 0.3 µM | COc1ccc(-c2ccc3c(N4CCOCC4)nc(-c4cc(C(=O)O)cc([N+](=O)[O-])c4)nc3n2)cc1CO [Example 9b]
< 0.3 µM | COc1ccc(-c2ccc3c(N4CCOCC4)nc(-c4cccc([N+](=O)[O-])c4)nc3n2)cc1CO [Example 9c]
< 0.3 µM | COc1ccc(-c2ccc3c(N4CCOCC4)nc(-c4cccc(CO)c4)nc3n2)cc1CO [Example 9ae]

— patent US20080194546A1, “Pyrido-, Pyrazo- and Pyrimido-Pyrimidine Derivatives as mTOR Inhibitors” (KuDOS Pharmaceuticals Limited, priority 2005, published 2008)
